Columns and labels:
Cdc20 = assay: Effect of demecolcine on Cdc20 localization in mouse oocytes; assay type: cell-based; conditions: 0.4 μg/mL, SrCl2-activated oocytes, throughout development
Procedure: (§1) In order to induce superovulation in donor mice, female CF-1 mice (Charles River Laboratories) of breeding age were injected with Pregnant Mare Serum Gonadotropin (PMSG, Calbiochem) and Human Chorionic Gonadotropin (hCG, Calbiochem). For both hormones, 5IU was administered per mouse via intraperitioneal injection. PMSG was injected 64 hours before collection and hCG was given 48 hours later. Oviducts were dissected from mice euthanized by CO2 asphyxiation and placed in FHM media (Chemicon) at 37° C. Oocytes were separated from surrounding cumulus cells by a brief exposure to bovine hyaluronidase (HA, Sigma, 150 units/ml, <10 minutes). Oocytes with poor morphology (lysed, fragmented, dark pigmentation) were discarded. Oocytes were washed three times in FHM media and randomly sorted into treatment groups. Some oocytes were immediately fixed (see below) at Metaphase of Meiosis II (MII).
(§2) For SrCl2 activation, the denuded oocytes were washed 3 times in FHM, 3 to 4 times in KSOM (without Ca^+2, Chemicon) equilibrated to 37° C. in 5% CO2, and then incubated in KSOM containing 10 mM strontium chloride at 37° C. with 5% CO2. After 15 minutes, some oocytes, depending on experimental design, were transferred to KSOM containing both SrCl2 (10 mM) and demecolcine (0.4 μg/mL) and incubated at 37° C. with 5% CO2. […]

meiotic spindle = assay: Effect of demecolcine on meiotic spindle and chromatin in activated mouse oocytes; assay type: cell-based; conditions: 0.4 μg/mL, SrCl2-activated oocytes
Procedure: as §1, with “(MII). […]” for “(MII).”
(§3) To localize Apc11, a polyclonal antibody raised in rabbits against N-terminal amino acids of human Apc11 (Santa Cruz) was used as a primary antibody. […] Imaging was accomplished on a Zeiss Axiovert 200M inverted fluorescence microscope coupled to a Roper CoolSnapFx camera through a 63× oil emersion objective and 10× eyepiece/camera lens. […]

Metaphase II oocytes = assay: Induced enucleation of activated Metaphase II oocytes (2nd polar body extrusion); assay type: cell-based; conditions: MII oocytes activated with 7% EtOH or 2 μM ionomycin; Taxol 5 μg/mL, cycloheximide 10 μg/mL, demecolcine 0.4 μg/mL; control 3.7%
Procedure: Metaphase II oocytes are activated with 7% EtOH or 2 μM ionomycin, followed by treatment with Taxol (5 μg/mL), or cycloheximide (10 μg/mL) or demecolcine (0.4 μg/mL), resulting in the 2nd polar body extrusion.
With demecoleine-induced enucleation, activated oocytes are treated with the microttibuline destabilizing drug, demecolcine. The resulting cytoplasts are competent to support term developments. Often, cytoplasts fail to complete the second polar body extrusion. Induced enucleation can take place, just prior to activation or just after activation.

Rec8 = assay: Effect of demecolcine on Rec8 localization in mouse oocytes; assay type: cell-based; conditions: 0.4 μg/mL, SrCl2-activated oocytes
Procedure: as §1, §2

Apc11 = assay: Effect of demecolcine on Apc11 spatial localization in mouse oocytes; assay type: cell-based; conditions: 0.4 μg/mL, SrCl2-activated oocytes, AII, TII, Interphase
Procedure: as §1, with “(MII). […]” for “(MII).”
as §3

[1] = tested on: mouse oocytes arrested at MII; conditions: standard ethanol activation protocol, data not shown

CN[C@H]1CCc2cc(OC)c(OC)c(OC)c2-c2ccc(OC)c(=O)cc21 [demecolcine]
Cdc20 staining pattern (Cdc20): low levels of muddled signal across the cytoplasm
extrusion of chromatin (meiotic spindle; Interphase (FIG. 16)): completely extrudes its chromatin in the second polar body
meiotic spindle integrity (meiotic spindle; compared to control eggs): severely disrupted
induced enucleation, 2nd polar body extrusion (Metaphase II oocytes): 54%
Rec8 localization during Anaphase (Rec8; Anaphase II): aggregate in an area surrounding the chromatin, but not directly over it
Rec8 localization during Telophase (Rec8; Telophase II, continues into Interphase): direct colocalization (purple spots) with the chromatin
Apc11 staining pattern (Apc11): non-distinct ataxia across the entire oocyte with no evidence of colocalization in any stage of development

C[C@@H]1C[C@@H]([C@H](O)CC2CC(=O)NC(=O)C2)C(=O)[C@@H](C)C1 [cycloheximide]
induced enucleation, 2nd polar body extrusion (Metaphase II oocytes): 16.3%

CC(=O)O[C@H]1C(=O)[C@@]2(C)[C@H]([C@H](OC(=O)c3ccccc3)[C@]3(O)C[C@H](OC(=O)[C@H](O)[C@@H](NC(=O)c4ccccc4)c4ccccc4)C(C)=C1C3(C)C)[C@]1(OC(C)=O)CO[C@@H]1C[C@@H]2O [Taxol]
induced enucleation, 2nd polar body extrusion (Metaphase II oocytes): 3.6%

CCO [ethanol]
eggs per experiment that failed to leave MII [1]: ≤ 50%

Source: patent publication US20130102838A1, “Oocyte Spindle-Associated Factors Improve Somatic Cell Cloning” (WORCESTER POLYTECHNIC INSTITUTE, priority 2007, published 2013)
